# Assay results as given in patent US7700284B2, “Reporter transcription unit populations and kits comprising same” (Attagene, Inc., priority 2004, dated 2010).
# How the values were obtained:
# metal-sensitive MTΔ RTU = test: Multiplexed RTU reporter profiling in transfected HEK293 cells, MTΔ RTU; conditions: HEK293, 100 μM, 6 hrs stimulation, 11-RTU library
# [1] = biological target: GR RTU (Gal4DBD-GR fusion) (Homo sapiens, UniProt P04150); conditions: HEK293, 10 uM, 6 hrs induction, versus non-induced cells
# Chain of GR RTU (Gal4DBD-GR fusion) (P04150 486-777): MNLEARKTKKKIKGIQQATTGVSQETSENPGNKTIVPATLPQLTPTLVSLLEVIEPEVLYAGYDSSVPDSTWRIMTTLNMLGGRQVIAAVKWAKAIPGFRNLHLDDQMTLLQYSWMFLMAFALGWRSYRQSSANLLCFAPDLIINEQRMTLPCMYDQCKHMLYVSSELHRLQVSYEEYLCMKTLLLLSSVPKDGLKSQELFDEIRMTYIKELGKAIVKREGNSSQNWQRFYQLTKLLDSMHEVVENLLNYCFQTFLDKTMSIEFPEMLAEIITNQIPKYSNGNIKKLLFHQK
# [2] = tested on: Elk-1 TAD RTU (ERK1/2 pathway); test: MAPK pathway TAD RTU profiling in HEK293 cells, Elk-1 TAD RTU; format: cell-based, human; conditions: HEK293, PMA 10 uM, 6 hours induction, versus control cells
# ATF2 TAD RTU = test: MAPK pathway TAD RTU profiling in HEK293 cells, ATF2 TAD RTU; format: cell-based, human; conditions: HEK293, PMA 10 uM, 6 hours induction
# c-Jun TAD RTU = test: MAPK pathway TAD RTU profiling in HEK293 cells, c-Jun TAD RTU; format: cell-based, human; conditions: HEK293, PMA 10 uM, 6 hours induction
# NF-κB RTU = test: Multiplexed RTU reporter profiling in transfected HEK293 cells, NF-κB RTU; conditions: HEK293, 100 u per ml, 6 hrs stimulation, 11-RTU library
molecule,measurement,setting,value
[Cl-].[Cl-].[Zn+2] [ZnCl2],induction of MTΔ RTU (stimulated versus nonstimulated cells),metal-sensitive MTΔ RTU,induced
dexamethasone [Dexamethazone],increase of reporter peak produced by GR RTU,[1],10 fold
"CCCCCCCCCCCCCC(=O)O[C@@H]1[C@@H](C)[C@@]2(O)[C@@H](C=C(CO)C[C@@]3(O)C(=O)C(C)=C[C@@H]23)[C@@H]2C(C)(C)[C@]12OC(C)=O [PMA, 4α-Phorbol 12-myristate 13-acetate]",activation of the Elk-1 TAD RTU,[2],~20 fold
same,activity of ATF2 TAD RTU,ATF2 TAD RTU,remained unchanged
same,activity of c-Jun TAD RTU,c-Jun TAD RTU,remained unchanged
IL-1β: Human recombinant IL-1β purchased from Roche; NF-κB inducer,activation of NF-κB RTU (stimulated versus nonstimulated cells),NF-κB RTU,specifically activated
